Laboratory results as given in PubChem BioAssay AID248 (DTP/NCI, 2004).
Several values for one entry are separate records, joined by “and”; a condition that tells them apart may be missing. Identical values can stand only once. Toxic doses and inconclusive results are not listed. Cut-off read from the data, not from the text of the source: active = T/C of 150% or more; inactive = T/C below 125%.

Tested on: L1210 leukemia ip in BDF1 mice, survival T/C
Assay: NCI In Vivo Anticancer Drug Screen. Data for tumor model L1210 Leukemia (intraperitoneal) in B6D2F1 (BDF1) mice
Settings: endpoint: mean survival time, higher = longer survival
Method in brief: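 Tumor cells were implanted, animals were treated, and survival was followed. The result divides the treated measurement by the vehicle-control measurement.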

[1] = dose: 100.0 mg/kg/injection, schedule: Q04DX003 (ip), vehicle: saline
[2] = dose: 200.0 mg/kg/injection, schedule: Q04DX003 (ip), vehicle: saline
[3] = dose: 100.0 mg/kg/injection, schedule: Q01DX009 (ip), vehicle: saline with Tween-80
[4] = dose: 100.0 mg/kg/injection, schedule: Q04DX003 (ip), vehicle: saline with Tween-80
[5] = dose: 200.0 mg/kg/injection, schedule: Q01DX009 (ip), vehicle: saline with Tween-80
[6] = dose: 200.0 mg/kg/injection, schedule: Q04DX003 (ip), vehicle: saline with Tween-80
[7] = dose: 400.0 mg/kg/injection, schedule: Q01DX009 (ip), vehicle: saline with Tween-80
[8] = dose: 100.0 mg/kg/injection, schedule: Q01DX001 (ip), vehicle: saline with Tween-80
[9] = dose: 200.0 mg/kg/injection, schedule: Q01DX001 (ip), vehicle: saline with Tween-80
[10] = dose: 400.0 mg/kg/injection, schedule: Q01DX001 (ip), vehicle: saline with Tween-80

Measured: T/C

COc1ccc(CSc2ncnc3nc[nH]c23)cc1
inactive: dose: 6.0 mg/kg/injection, schedule: Q01DX015 (ip), vehicle: carboxymethylcellulose (CMC) 92 % of control | dose: 12.0 mg/kg/injection, schedule: Q01DX015 (ip), vehicle: carboxymethylcellulose (CMC) 91 % of control | dose: 25.0 mg/kg/injection, schedule: Q01DX015 (ip), vehicle: carboxymethylcellulose (CMC) 101 % of control | dose: 50.0 mg/kg/injection, schedule: Q01DX015 (ip), vehicle: carboxymethylcellulose (CMC) 101 % of control | dose: 200.0 mg/kg/injection, schedule: Q01DX015 (ip), vehicle: carboxymethylcellulose (CMC) 111 % of control

CSc1nnc2sc(=S)[nH]n12
inactive: dose: 100.0 mg/kg/injection, schedule: Q01DX001 (ip), vehicle: carboxymethylcellulose (CMC) 105 % of control | dose: 200.0 mg/kg/injection, schedule: Q01DX001 (ip), vehicle: carboxymethylcellulose (CMC) 90 % of control | dose: 400.0 mg/kg/injection, schedule: Q01DX001 (ip), vehicle: carboxymethylcellulose (CMC) 94 % of control

COc1ccc(OC)c(NC(=S)N/N=C(/C)c2cc(Cl)c(C)cc2O)c1
inactive: dose: 12.5 mg/kg/injection, schedule: Q04DX002 (ip), vehicle: Klucel (hydroxypropylcellulose) (HPC) 112 % of control | dose: 25.0 mg/kg/injection, schedule: Q04DX002 (ip), vehicle: Klucel (hydroxypropylcellulose) (HPC) 97 % of control | dose: 50.0 mg/kg/injection, schedule: Q04DX002 (ip), vehicle: Klucel (hydroxypropylcellulose) (HPC) 97 % of control

O=C(NCCBr)OCc1ccccc1
inactive: dose: 50.0 mg/kg/injection, schedule: Q04DX003 (ip), vehicle: saline 98 % of control | [1] 98 % of control | [2] 101 % of control

CCOC(=O)c1cc(=O)ss1
inactive: dose: 50.0 mg/kg/injection, schedule: Q01DX009 (ip), vehicle: saline with Tween-80 100 % of control | [3] 101 % of control | [4] 96 % of control | [5] 92 % of control | [6] 97 % of control | [7] 94 % of control | dose: 400.0 mg/kg/injection, schedule: Q04DX003 (ip), vehicle: saline with Tween-80 106 % of control

O=C(CN1CCCCC1)c1ccc(/C=C/c2ccc(Cl)cc2)cc1
inactive: dose: 12.5 mg/kg/injection, schedule: Q01DX009 (ip), vehicle: Klucel (hydroxypropylcellulose) (HPC) 93 % of control | dose: 25.0 mg/kg/injection, schedule: Q01DX009 (ip), vehicle: Klucel (hydroxypropylcellulose) (HPC) 97 % of control | dose: 50.0 mg/kg/injection, schedule: Q01DX009 (ip), vehicle: Klucel (hydroxypropylcellulose) (HPC) 87 % of control and 88 % of control | dose: 100.0 mg/kg/injection, schedule: Q04DX003 (ip), vehicle: Klucel (hydroxypropylcellulose) (HPC) 88 % of control | dose: 200.0 mg/kg/injection, schedule: Q04DX003 (ip), vehicle: Klucel (hydroxypropylcellulose) (HPC) 88 % of control

Cc1ccc(S(=O)(=O)OCC(C)C2CCC3C4CC=C5CC(Cl)CCC5(C)C4CCC23C)cc1 (configuration not stated)
inactive: [8] 91 % of control | [9] 102 % of control | [10] 94 % of control

C1=NCCCN1
inactive: dose: 50.0 mg/kg/injection, schedule: Q01DX009 (ip), vehicle: saline 89 % of control | dose: 100.0 mg/kg/injection, schedule: Q01DX009 (ip), vehicle: saline 94 % of control | [1] 97 % of control | [2] 100 % of control

CC(=O)Oc1c2c(n3c1CCC3)CC(C)(C)CC2=O
inactive: dose: 75.0 mg/kg/injection, schedule: Q04DX002 (ip), vehicle: Klucel (hydroxypropylcellulose) (HPC) 102 % of control | dose: 150.0 mg/kg/injection, schedule: Q04DX002 (ip), vehicle: Klucel (hydroxypropylcellulose) (HPC) 97 % of control | dose: 300.0 mg/kg/injection, schedule: Q04DX002 (ip), vehicle: Klucel (hydroxypropylcellulose) (HPC) 87 % of control

O=C(Nc1ccccc1)Nc1ccc([N+](=O)[O-])cc1[N+](=O)[O-]
inactive: [8] 93 % of control | [4] 92 % of control | [9] 92 % of control | [6] 93 % of control | [10] 98 % of control

CCCCSSCCCC
inactive: dose: 50.0 mg/kg/injection, schedule: Q01DX001 (ip), vehicle: Klucel (hydroxypropylcellulose) (HPC) 94 % of control | dose: 100.0 mg/kg/injection, schedule: Q01DX001 (ip), vehicle: Klucel (hydroxypropylcellulose) (HPC) 102 % of control | dose: 200.0 mg/kg/injection, schedule: Q01DX001 (ip), vehicle: Klucel (hydroxypropylcellulose) (HPC) 105 % of control

CCCCCCC(O)CCCCCCCCCCC(=O)O (configuration not stated)
inactive: [3] 106 % of control | [5] 93 % of control | [7] 88 % of control

NC(N)=N/N=C1\CCCC\C1=N/N=C(N)N
inactive: dose: 15.0 mg/kg/injection, schedule: Q01DX Z (ip), vehicle: carboxymethylcellulose (CMC) 97 % of control | dose: 30.0 mg/kg/injection, schedule: Q01DX Z (ip), vehicle: carboxymethylcellulose (CMC) 95 % of control | dose: 60.0 mg/kg/injection, schedule: Q01DX Z (ip), vehicle: carboxymethylcellulose (CMC) 91 % of control | dose: 60.0 mg/kg/injection, schedule: Q01DX Z (oral), vehicle: carboxymethylcellulose (CMC) 96 % of control | dose: 120.0 mg/kg/injection, schedule: Q01DX Z (ip), vehicle: carboxymethylcellulose (CMC) 102 % of control | dose: 120.0 mg/kg/injection, schedule: Q01DX Z (oral), vehicle: carboxymethylcellulose (CMC) 93 % of control | dose: 240.0 mg/kg/injection, schedule: Q01DX Z (oral), vehicle: carboxymethylcellulose (CMC) 88 % of control | dose: 480.0 mg/kg/injection, schedule: Q01DX Z (oral), vehicle: carboxymethylcellulose (CMC) 98 % of control

CCCCCCCCCCCCCCCCOc1ccc(F)cc1F
inactive: dose: 100.0 mg/kg/injection, schedule: Q04DX002 (ip), vehicle: Klucel (hydroxypropylcellulose) (HPC) 118 % of control | dose: 200.0 mg/kg/injection, schedule: Q04DX002 (ip), vehicle: Klucel (hydroxypropylcellulose) (HPC) 96 % of control | dose: 400.0 mg/kg/injection, schedule: Q04DX002 (ip), vehicle: Klucel (hydroxypropylcellulose) (HPC) 96 % of control

CC(=O)O[C@H]1[C@H]2O[C@]23[C@@H]2CC[C@@H]4C[C@@H](OC(=O)CCC(=O)O)CC[C@]4(C)[C@H]2CC[C@]3(C)[C@H]1c1ccc(=O)oc1
inactive: dose: 0.13 mg/kg/injection, schedule: Q01DX009 (ip), vehicle: Klucel (hydroxypropylcellulose) (HPC) 100 % of control | dose: 0.25 mg/kg/injection, schedule: Q01DX009 (ip), vehicle: Klucel (hydroxypropylcellulose) (HPC) 97 % of control | dose: 0.5 mg/kg/injection, schedule: Q01DX009 (ip), vehicle: Klucel (hydroxypropylcellulose) (HPC) 93 % of control | dose: 1.0 mg/kg/injection, schedule: Q01DX009 (ip), vehicle: Klucel (hydroxypropylcellulose) (HPC) 110 % of control
